# According to US12404295B2, “(Hetero)aryl-methyl-thio-beta-D-galactopyranoside derivatives” (Idorsia Pharmaceuticals Ltd, priority 2019, dated 2025):
# pIC50: −log10 of the molar value.
# Key:
# human Gal-3 (hGal-3) = human Gal-3 (hGal-3) (Homo sapiens (Human), UniProt P17931); test: competitive binding assay: biotinylated hGal-3 binding to microplate-adsorbed asialofetuin (ASF); conditions: Gal-3 inhibition; binding of biotinylated hGal-3 to ASF; mean values; read-out: IC50
# Procedure: If not explicitly mentioned otherwise, the inhibition data refer to the binding of biotinylated human Gal-3 (hGal-3).
# (§1) Evaluation of Compound Inhibitory Activity (IC50)
# The inhibitory activity of compounds is determined in competitive binding assays.
# Briefly, compounds are serially diluted in DMSO (working dilutions).
# (§2) Plates are incubated for 3 hours at 4° C., then washed with cold assay buffer (3×50 uL), incubated for 1 hour with 25 μL/well of a streptavidin-peroxidase solution (diluted in assay buffer to 80 ng/mL) at 4° C., followed by further washing steps with assay buffer (3×50 uL). Finally, 25 μL/well of ABTS substrate is added.
# (§3) The calculated IC50 values may fluctuate depending on the daily assay performance. Fluctuations of this kind are known to those skilled in the art. IC50 values from several measurements are given as mean values.
# human Gal-1 (hGal-1) = human Gal-1 (hGal-1) (Homo sapiens (Human), UniProt P09382); test: competitive binding assay: biotinylated hGal-1 binding to microplate-adsorbed asialofetuin (ASF); conditions: Table 15; read-out: IC50 (Galectin-1 inhibition)
# Sequence of human Gal-1 (hGal-1) (P09382 whole entry): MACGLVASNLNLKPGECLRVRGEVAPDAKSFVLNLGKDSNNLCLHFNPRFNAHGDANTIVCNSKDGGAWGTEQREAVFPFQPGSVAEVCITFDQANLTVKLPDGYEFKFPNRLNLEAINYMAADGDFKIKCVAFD
# Procedure: Inhibition data of the epimers R and S of selected Examples are also listed.
# as §1
# The inhibitory activity of compounds is determined in competitive binding assays. This spectrophotometric assay measures the binding of biotinylated human Gal-3 (hGal-3) or human Gal-1 (hGal-1), respectively, to a microplate-adsorbed glycoprotein, asialofetuin (ASF) (Proc Natl Acad Sci USA. 2013 Mar. 26; 110(13):5052-7.).
# Briefly, compounds are serially diluted in DMSO (working dilutions). ASF-coated 384 well plates are supplemented with 22.8 μL/well of biotinylated hGal-3 or hGal-1 in assay buffer (i.e. 300-1000 ng/mL biotinylated hGal-3 or hGal-1) to which 1.2 μL of compound working dilutions are added and mixed.
# as §2, §3
# Sequence of human Gal-3 (hGal-3) (P17931 whole entry): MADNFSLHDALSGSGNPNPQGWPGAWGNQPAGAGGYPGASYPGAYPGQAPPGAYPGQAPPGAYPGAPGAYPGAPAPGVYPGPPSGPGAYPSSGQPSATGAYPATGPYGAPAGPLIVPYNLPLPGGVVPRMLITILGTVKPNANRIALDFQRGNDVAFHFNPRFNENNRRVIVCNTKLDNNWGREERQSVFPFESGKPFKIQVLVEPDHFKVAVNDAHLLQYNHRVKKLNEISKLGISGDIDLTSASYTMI
pIC50 (human Gal-3 (hGal-3)),pIC50 (human Gal-1 (hGal-1)),Compound
6.52,5.91,"CCc1ccccc1C(S[C@@H]1O[C@H](CO)[C@H](O)[C@H](n2cc(-c3cc(F)c(F)c(F)c3)nn2)[C@H]1O)C(C)(C)O (stereo partly drawn) [Example 2.31.103., (2S,3R,4S,5R,6R)-2-((1-(2-Ethylphenyl)-2-hydroxy-2-methylpropyl)thio)-6-(hydroxymethyl)-4-(4-(3,4,5-trifluorophenyl)-1H-1,2,3-triazol-1-yl)tetrahydro-2H-pyran-3,5-diol]"
6.77,6.22,"CCCc1ccccc1C(S[C@@H]1O[C@H](CO)[C@H](O)[C@H](n2cc(-c3cc(F)c(F)c(F)c3)nn2)[C@H]1O)C(C)(C)O (stereo partly drawn) [Example 2.31.104., (2S,3R,4S,5R,6R)-2-((2-Hydroxy-2-methyl-1-(2-propylphenyl)propyl)thio)-6-(hydroxymethyl)-4-(4-(3,4,5-trifluorophenyl)-1H-1,2,3-triazol-1-yl)tetrahydro-2H-pyran-3,5-diol]"
6.74,6.52,"CC(C)c1ccccc1C(S[C@@H]1O[C@H](CO)[C@H](O)[C@H](n2cc(-c3cc(F)c(F)c(F)c3)nn2)[C@H]1O)C(C)(C)O (stereo partly drawn) [Example 2.31.105., (2S,3R,4S,5R,6R)-2-((2-Hydroxy-1-(2-isopropylphenyl)-2-methylpropyl)thio)-6-(hydroxymethyl)-4-(4-(3,4,5-trifluorophenyl)-1H-1,2,3-triazol-1-yl)tetrahydro-2H-pyran-3,5-diol]"
7.22,6.80,"CC(C)c1ccccc1[C@@H](S[C@@H]1O[C@H](CO)[C@H](O)[C@H](n2cc(-c3cc(F)c(F)c(F)c3)nn2)[C@H]1O)C(C)(C)O [Example 2.31.105R., (2S,3R,4S,5R,6R)-2-(((R)-2-Hydroxy-1-(2-isopropylphenyl)-2-methylpropyl)thio)-6-(hydroxymethyl)-4-(4-(3,4,5-trifluorophenyl)-1H-1,2,3-triazol-1-yl)tetrahydro-2H-pyran-3,5-diol]"
5.08,4.19,"CC(C)c1ccccc1[C@H](S[C@@H]1O[C@H](CO)[C@H](O)[C@H](n2cc(-c3cc(F)c(F)c(F)c3)nn2)[C@H]1O)C(C)(C)O [Example 2.31.105S., (2S,3R,4S,5R,6R)-2-(((S)-2-Hydroxy-1-(2-isopropylphenyl)-2-methylpropyl)thio)-6-(hydroxymethyl)-4-(4-(3,4,5-trifluorophenyl)-1H-1,2,3-triazol-1-yl)tetrahydro-2H-pyran-3,5-diol]"
6.70,6.47,"CC(C)(O)C(S[C@@H]1O[C@H](CO)[C@H](O)[C@H](n2cc(-c3cc(F)c(F)c(F)c3)nn2)[C@H]1O)c1ccccc1C1CC1 (stereo partly drawn) [Example 2.31.106., (2S,3R,4S,5R,6R)-2-((1-(2-Cyclopropylphenyl)-2-hydroxy-2-methylpropyl)thio)-6-(hydroxymethyl)-4-(4-(3,4,5-trifluorophenyl)-1H-1,2,3-triazol-1-yl)tetrahydro-2H-pyran-3,5-diol]"
6.85,6.68,"CC(C)(O)[C@H](S[C@@H]1O[C@H](CO)[C@H](O)[C@H](n2cc(-c3cc(F)c(F)c(F)c3)nn2)[C@H]1O)c1ccccc1C1CC1 [Example 2.31.106R., (2S,3R,4S,5R,6R)-2-(((R)-1-(2-cyclopropylphenyl)-2-hydroxy-2-methylpropyl)thio)-6-(hydroxymethyl)-4-(4-(3,4,5-trifluorophenyl)-1H-1,2,3-triazol-1-yl)tetrahydro-2H-pyran-3,5-diol]"
4.80,4.19,"CC(C)(O)[C@@H](S[C@@H]1O[C@H](CO)[C@H](O)[C@H](n2cc(-c3cc(F)c(F)c(F)c3)nn2)[C@H]1O)c1ccccc1C1CC1 [Example 2.31.106S., (2S,3R,4S,5R,6R)-2-(((S)-1-(2-cyclopropylphenyl)-2-hydroxy-2-methylpropyl)thio)-6-(hydroxymethyl)-4-(4-(3,4,5-trifluorophenyl)-1H-1,2,3-triazol-1-yl)tetrahydro-2H-pyran-3,5-diol]"
6.59,6.62,"CC(C)Cc1ccccc1C(S[C@@H]1O[C@H](CO)[C@H](O)[C@H](n2cc(-c3cc(F)c(F)c(F)c3)nn2)[C@H]1O)C(C)(C)O (stereo partly drawn) [Example 2.31.107., (2S,3R,4S,5R,6R)-2-((2-Hydroxy-1-(2-isobutylphenyl)-2-methylpropyl)thio)-6-(hydroxymethyl)-4-(4-(3,4,5-trifluorophenyl)-1H-1,2,3-triazol-1-yl)tetrahydro-2H-pyran-3,5-diol]"
6.70,6.52,"CC(C)Cc1ccccc1[C@@H](S[C@@H]1O[C@H](CO)[C@H](O)[C@H](n2cc(-c3cc(F)c(F)c(F)c3)nn2)[C@H]1O)C(C)(C)O [Example 2.31.107R., (2S,3R,4S,5R,6R)-2-(((R)-2-hydroxy-1-(2-isobutylphenyl)-2-methylpropyl)thio)-6-(hydroxymethyl)-4-(4-(3,4,5-trifluorophenyl)-1H-1,2,3-triazol-1-yl)tetrahydro-2H-pyran-3,5-diol]"
6.02,4.25,"CC(C)Cc1ccccc1[C@H](S[C@@H]1O[C@H](CO)[C@H](O)[C@H](n2cc(-c3cc(F)c(F)c(F)c3)nn2)[C@H]1O)C(C)(C)O [Example 2.31.107S., (2S,3R,4S,5R,6R)-2-(((S)-2-hydroxy-1-(2-isobutylphenyl)-2-methylpropyl)thio)-6-(hydroxymethyl)-4-(4-(3,4,5-trifluorophenyl)-1H-1,2,3-triazol-1-yl)tetrahydro-2H-pyran-3,5-diol]"
6.42,4.67,"CC(C)(O)C(S[C@@H]1O[C@H](CO)[C@H](O)[C@H](n2cc(-c3cc(F)c(F)c(F)c3)nn2)[C@H]1O)c1ccccc1CCO (stereo partly drawn) [Example 2.31.108., (2S,3R,4S,5R,6R)-2-((2-Hydroxy-1-(2-(2-hydroxyethyl)phenyl)-2-methylpropyl)thio)-6-(hydroxymethyl)-4-(4-(3,4,5-trifluorophenyl)-1H-1,2,3-triazol-1-yl)tetrahydro-2H-pyran-3,5-diol]"
6.57,6.41,"CC(C)(O)[C@H](S[C@@H]1O[C@H](CO)[C@H](O)[C@H](n2cc(-c3cc(F)c(F)c(F)c3)nn2)[C@H]1O)c1ccccc1CCO [Example 2.31.108R., (2S,3R,4S,5R,6R)-2-(((R)-2-Hydroxy-1-(2-(2-hydroxyethyl)phenyl)-2-methylpropyl)thio)-6-(hydroxymethyl)-4-(4-(3,4,5-trifluorophenyl)-1H-1,2,3-triazol-1-yl)tetrahydro-2H-pyran-3,5-diol]"
5.09,4.59,"CC(C)(O)[C@@H](S[C@@H]1O[C@H](CO)[C@H](O)[C@H](n2cc(-c3cc(F)c(F)c(F)c3)nn2)[C@H]1O)c1ccccc1CCO [Example 2.31.108S., (2S,3R,4S,5R,6R)-2-(((S)-2-Hydroxy-1-(2-(2-hydroxyethyl)phenyl)-2-methylpropyl)thio)-6-(hydroxymethyl)-4-(4-(3,4,5-trifluorophenyl)-1H-1,2,3-triazol-1-yl)tetrahydro-2H-pyran-3,5-diol]"
6.27,5.49,"CCCCCc1ccccc1C(S[C@@H]1O[C@H](CO)[C@H](O)[C@H](n2cc(-c3cc(F)c(F)c(F)c3)nn2)[C@H]1O)C(C)(C)O (stereo partly drawn) [Example 2.31.109., (2S,3R,4S,5R,6R)-2-((2-Hydroxy-2-methyl-1-(2-pentylphenyl)propyl)thio)-6-(hydroxymethyl)-4-(4-(3,4,5-trifluorophenyl)-1H-1,2,3-triazol-1-yl)tetrahydro-2H-pyran-3,5-diol]"
6.74,6.40,"CC(C)(O)C(S[C@@H]1O[C@H](CO)[C@H](O)[C@H](n2cc(-c3cc(F)c(F)c(F)c3)nn2)[C@H]1O)c1ccccc1-c1ccccc1 (stereo partly drawn) [Example 2.31.110., (2S,3R,4S,5R,6R)-2-((1-([1,1′-Biphenyl]-2-yl)-2-hydroxy-2-methylpropyl)thio)-6-(hydroxymethyl)-4-(4-(3,4,5-trifluorophenyl)-1H-1,2,3-triazol-1-yl)tetrahydro-2H-pyran-3,5-diol]"
6.66,6.55,"CC(C)(O)[C@H](S[C@@H]1O[C@H](CO)[C@H](O)[C@H](n2cc(-c3cc(F)c(F)c(F)c3)nn2)[C@H]1O)c1ccccc1-c1ccccc1 [Example 2.31.110R., (2S,3R,4S,5R,6R)-2-(((R)-1-([1,1′-Biphenyl]-2-yl)-2-hydroxy-2-methylpropyl)thio)-6-(hydroxymethyl)-4-(4-(3,4,5-trifluorophenyl)-1H-1,2,3-triazol-1-yl)tetrahydro-2H-pyran-3,5-diol]"
5.31,4.78,"CC(C)(O)[C@@H](S[C@@H]1O[C@H](CO)[C@H](O)[C@H](n2cc(-c3cc(F)c(F)c(F)c3)nn2)[C@H]1O)c1ccccc1-c1ccccc1 [Example 2.31.110S., (2S,3R,4S,5R,6R)-2-(((S)-1-([1,1′-Biphenyl]-2-yl)-2-hydroxy-2-methylpropyl)thio)-6-(hydroxymethyl)-4-(4-(3,4,5-trifluorophenyl)-1H-1,2,3-triazol-1-yl)tetrahydro-2H-pyran-3,5-diol]"
